Measurements as given in US20230131943A1, “ANTI-INFECTIVE AND ANTI-VIRAL COMPOUNDS AND COMPOSITIONS” (priority 2020, published 2023).

Key:
SARS-CoV-2 = SARS-CoV-2 virus production in infected CaCo2 cells (fluorescence or luminescence normalized to Hoechst); details: for Fluorescence ratio: added substances at the fixed concentration indicated, CaCo2 cells, untreated = 0.2; for SARS-CoV-2 viral protein production in CaCo2 cells - effect of each substance at 10 μM (% of untreated): 10 μM in medium, low values indicate inhibition of viral protein production
[1] = tested on: Staphylococcus aureus Newman; test: Infection of mice by Staphylococcus aureus Newman (body weight, CFU from kidney); type: in vivo; details: FIG. 6; mice infected with Staphylococcus aureus Newman
Staphylococcus carnosus = test: Inhibition of growth of Staphylococcus carnosus (optical density of culture); type: cell-based; details: after 9-20 h, no compound 0.887
Description: (§1) Activity of substances in the inhibition of growth of bacteria. Bacteria including the species Escherichia coli, Bacillus pumilus, Salmonella sp., Micrococcus luteus and Staphylococcus carnosus are cultured in appropriate media (Luria broth for all except S. canosus). Overnight cultures are mixed with fresh medium to reach an optical density at […] of ca. 0.1 AU. These cultures are mixed with solutions of substances to be tested at concentrations ranging from 100 μM to 0.05 μM in a microtitre plate. The growth of the culture is monitored by measuring the optical density at various times after the addition of the inhibitor. Reduction in the rate of increase in optical density corresponds to an inhibition of bacterial growth. In the following tables, the activity of various of the test substances may be observed by reductions in optical density relative to untreated control cultures.

Salmonella typhimurium = test: Inhibition of growth of Salmonella typhimurium (optical density of culture); type: cell-based; details: after 9-20 h, no compound 0.943
Description: as §1

[2] = Dextran sulfate colitis model of inflammatory bowel disease in mice; type: in vivo, mouse; details: FIG. 18; all doses 1.34 μmol/kg; N=8
Source text: The potential efficacy of a Compound for Inflammatory bowel disease may be modeled as follows. C57 BLK6 or BALBc mice are provided with drinking water containing 2.5% or 2.8% dextran sulfate. Animals are weighed and observed for signs of intestinal disturbance daily. Signs include diarrhea or occult blood. Compound is formulated by mixing with a solution of 0.1 up to 1% citric acid depending on concentration. Compound is provided by oral gavage daily.

## CN(C)C(=O)COC(=O)Cc1ccc(OC(=O)c2ccc(NC(=N)N)cc2)cc1 [Camostat, reference compound]
SARS-CoV-2; 0.312 μM of the (first named) compound
  Fluorescence ratio: 0.09
SARS-CoV-2; 0.625 μM of the (first named) compound
  Fluorescence ratio: 0.08
SARS-CoV-2; 1.25 μM of the (first named) compound
  Fluorescence ratio: 0.01
SARS-CoV-2; 2.5 μM of the (first named) compound
  Fluorescence ratio: 0.03
SARS-CoV-2; 5 μM of the (first named) compound
  Fluorescence ratio: 0.07
SARS-CoV-2
  SARS-CoV-2 viral protein production in CaCo2 cells - effect of each substance at 10 μM (% of untreated): 2 % of untreated
SARS-CoV-2; 10 μM of the (first named) compound
  Fluorescence ratio: 0.02

## CC[C@H]1OC(=O)[C@H](C)[C@@H](O[C@H]2C[C@@](C)(OC)[C@@H](O)[C@H](C)O2)[C@H](C)[C@@H](O[C@@H]2O[C@H](C)C[C@H](N(C)C)[C@H]2O)[C@](C)(O)C[C@@H](C)CN(C)[C@H](C)[C@@H](O)[C@]1(C)O [Azithromycin, reference compound]
[1]
  Bacteria quantified as CFU recovered from a standard sample of kidney: decreases recovered bacteria in a dose responsive manner

## CCCC(=O)O[C@@H]1C(N(C)C)C[C@@H](C)O[C@H]1O[C@@H]1[C@@H](C)[C@H](O[C@H]2C[C@@](C)(OC)[C@@H](O)[C@H](C)O2)[C@@H](C)C(=O)O[C@H](CC)[C@@](C)(O)[C@H](O)[C@@H](C)N(C)C[C@H](C)C[C@@]1(C)O (stereo partly drawn) [Compound E-19]
SARS-CoV-2
  SARS-CoV-2 viral protein production in CaCo2 cells - effect of each substance at 10 μM (% of untreated): 34 % of untreated

## CC[C@H]1OC(=O)[C@H](C)[C@@H](O[C@@H]2O[C@@H](C)[C@@H](OC(C)=O)[C@@H](OC(C)=O)[C@@H]2OC(C)=O)[C@H](C)[C@@H](O[C@@H]2O[C@H](C)C[C@H](N(C)C)[C@H]2O)[C@](C)(O)C[C@@H](C)CN(C)[C@H](C)[C@@H](O)[C@]1(C)O [Compound A-23, 3-descladinosyl-3-triacetylfucosylazithromycin]
SARS-CoV-2
  SARS-CoV-2 viral protein production in CaCo2 cells - effect of each substance at 10 μM (% of untreated): 44 % of untreated

## CCCN(CCO)CC(O)CN(C)[C@H]1C[C@@H](C)O[C@@H](O[C@@H]2[C@@H](C)[C@H](O[C@H]3C[C@@](C)(OC)[C@@H](O)[C@H](C)O3)[C@@H](C)C(=O)O[C@H](CC)[C@@](C)(O)[C@H](O)[C@@H](C)N(C)C[C@H](C)C[C@@]2(C)O)[C@@H]1O (stereo partly drawn) [Compound A-24, (2R,3S,4R,5R,8R,10R,11R,12S,13S, 14R)-2-ethyl-3,4,10-trihydroxy-11-(((2S,3R,4R,6R)-3-hydroxy-4-((2-hydroxy-3-((2-hydroxyethyl)(propyl)amino)propyl) (methyl)amino)-6-methyltetrahydro-2H-pyran-2-yl)oxy)-13-(((2R,4R,58,6S)-5-hydroxy-4-methoxy-4,6-dimethyltetrahydro-2H-pyran-2-yl)oxy)-3,5,6,8,10,12,14-heptamethyl-1-oxa-6-azacyclopentadecan-15-one]
SARS-CoV-2
  SARS-CoV-2 viral protein production in CaCo2 cells - effect of each substance at 10 μM (% of untreated): 35 % of untreated

## CC[C@H]1OC(=O)[C@H](C)[C@@H](O)[C@H](C)[C@@H](O[C@@H]2O[C@H](C)C[C@H](NC)[C@H]2O)[C@](C)(O)C[C@@H](C)CN(C)[C@H](C)[C@@H](O)[C@]1(C)O [Compound A-25, (2R,3S,4R,5R,8R,10R,11R,12S,13S, 14R)-2-ethyl-3,4,10,13-tetrahydroxy-11-(((2S,3R,4S,6R)-3-hydroxy-6-methyl-4-(methylamino)tetrahydro-2H-pyran-2-yl)oxy)-3,5,6,8,10,12,14-heptamethyl-1-oxa-6-azacyclopentadecan-15-one]
SARS-CoV-2
  SARS-CoV-2 viral protein production in CaCo2 cells - effect of each substance at 10 μM (% of untreated): 34 % of untreated

## CCC(=O)O[C@@H]1[C@@H](C)N(C)C[C@H](C)C[C@@](C)(O)[C@H](O[C@@H]2O[C@H](C)CC(N(C)C)[C@H]2O)[C@@H](C)[C@H](O[C@H]2C[C@@](C)(OC)[C@@H](O)[C@H](C)O2)[C@@H](C)C(=O)O[C@H](CC)[C@@]1(C)O (stereo partly drawn) [Compound E-18]
SARS-CoV-2
  SARS-CoV-2 viral protein production in CaCo2 cells - effect of each substance at 10 μM (% of untreated): 49 % of untreated

## CC[C@H]1OC(=O)[C@H](C)[C@@H](O[C@H]2C[C@@](C)(OC)[C@@H](O)[C@H](C)O2)[C@H](C)[C@@H](O[C@@H]2O[C@H](C)CC(N(C)C)[C@H]2O[N+](=O)[O-])[C@](C)(O)C[C@@H](C)CN(C)[C@H](C)[C@@H](OC)[C@]1(C)O (stereo partly drawn) [Compound E-11]
Staphylococcus carnosus; 0.8 μM
  Absorbance of culture medium at 600 nm: 0.941
Staphylococcus carnosus; 2 μM
  Absorbance of culture medium at 600 nm: 0.918
Staphylococcus carnosus; 3 μM
  Absorbance of culture medium at 600 nm: 0.890
Staphylococcus carnosus; 6 μM
  Absorbance of culture medium at 600 nm: 0.887
Staphylococcus carnosus; 13 μM
  Absorbance of culture medium at 600 nm: 0.822
Staphylococcus carnosus; 25 μM
  Absorbance of culture medium at 600 nm: 0.819
Staphylococcus carnosus; 50 μM
  Absorbance of culture medium at 600 nm: 0.574
Staphylococcus carnosus; 100 μM
  Absorbance of culture medium at 600 nm: 0.641
Salmonella typhimurium; 0.8 μM
  Absorbance of culture medium at 600 nm: 0.555
Salmonella typhimurium; 2 μM
  Absorbance of culture medium at 600 nm: 0.587
Salmonella typhimurium; 3 μM
  Absorbance of culture medium at 600 nm: 0.623
Salmonella typhimurium; 6 μM
  Absorbance of culture medium at 600 nm: 0.627
Salmonella typhimurium; 13 μM
  Absorbance of culture medium at 600 nm: 0.633
Salmonella typhimurium; 25 μM
  Absorbance of culture medium at 600 nm: 0.697
Salmonella typhimurium; 50 μM
  Absorbance of culture medium at 600 nm: 0.650
Salmonella typhimurium; 100 μM
  Absorbance of culture medium at 600 nm: 0.562
SARS-CoV-2
  SARS-CoV-2 viral protein production in CaCo2 cells - effect of each substance at 10 μM (% of untreated): 32 % of untreated

## CC[C@H]1OC(=O)[C@H](C)[C@@H](O[C@H]2C[C@@](C)(OC)[C@@H](O[N+](=O)[O-])[C@H](C)O2)[C@H](C)[C@@H](O[C@@H]2O[C@H](C)C[C@H](N(C)C)[C@H]2O)[C@](C)(O)C[C@@H](C)CN(C)[C@H](C)[C@@H](O)[C@]1(C)O [Compound E-1, (2S,3S,4R,6R)-6-(((2R,3S,4R,5R,8R,10R,11R,12S,13S, 14R)-11-(((2S,3R,4S,6R)-4-(dimethylamino)-3-hydroxy-6-methyltetrahydro-2H-pyran-2-yl)oxy)-2-ethyl-3,4,10-trihydroxy-3,5,6,8,10,12,14-heptamethyl-15-oxo-1-oxa-6-azacyclopentadecan-13-yl)oxy)-4-methoxy-2,4-dimethyltetrahydro-2H-pyran-3-yl nitrate]
Staphylococcus carnosus; 0.8 μM
  Absorbance of culture medium at 600 nm: 0.902
Staphylococcus carnosus; 2 μM
  Absorbance of culture medium at 600 nm: 0.856
Staphylococcus carnosus; 3 μM
  Absorbance of culture medium at 600 nm: 0.864
Staphylococcus carnosus; 6 μM
  Absorbance of culture medium at 600 nm: 0.625
Staphylococcus carnosus; 13 μM
  Absorbance of culture medium at 600 nm: 0.068
Staphylococcus carnosus; 25 μM
  Absorbance of culture medium at 600 nm: 0.078
Staphylococcus carnosus; 50 μM
  Absorbance of culture medium at 600 nm: 0.096
Staphylococcus carnosus; 100 μM
  Absorbance of culture medium at 600 nm: 0.157
Salmonella typhimurium; 0.8 μM
  Absorbance of culture medium at 600 nm: 0.722
Salmonella typhimurium; 2 μM
  Absorbance of culture medium at 600 nm: 0.761
Salmonella typhimurium; 3 μM
  Absorbance of culture medium at 600 nm: 0.711
Salmonella typhimurium; 6 μM
  Absorbance of culture medium at 600 nm: 0.741
Salmonella typhimurium; 13 μM
  Absorbance of culture medium at 600 nm: 0.722
Salmonella typhimurium; 25 μM
  Absorbance of culture medium at 600 nm: 0.736
Salmonella typhimurium; 50 μM
  Absorbance of culture medium at 600 nm: 0.484
Salmonella typhimurium; 100 μM
  Absorbance of culture medium at 600 nm: 0.557

## CC[C@H]1OC(=O)[C@H](C)[C@@H](O[C@H]2C[C@@](C)(OC)[C@@H](O)[C@H](C)O2)[C@H](C)[C@@H](O[C@@H]2O[C@H](C)CC(N(C)C)[C@H]2O)[C@](C)(O)C[C@@H](C)CN(C)[C@H](C)[C@@H](O[N+](=O)[O-])[C@]1(C)O (stereo partly drawn) [Compound E-10]
Staphylococcus carnosus; 0.8 μM
  Absorbance of culture medium at 600 nm: 0.862
Staphylococcus carnosus; 2 μM
  Absorbance of culture medium at 600 nm: 0.826
Staphylococcus carnosus; 3 μM
  Absorbance of culture medium at 600 nm: 0.768
Staphylococcus carnosus; 6 μM
  Absorbance of culture medium at 600 nm: 0.699
Staphylococcus carnosus; 13 μM
  Absorbance of culture medium at 600 nm: 0.702
Staphylococcus carnosus; 25 μM
  Absorbance of culture medium at 600 nm: 0.595
Staphylococcus carnosus; 50 μM
  Absorbance of culture medium at 600 nm: 0.433
Staphylococcus carnosus; 100 μM
  Absorbance of culture medium at 600 nm: 0.576
Salmonella typhimurium; 0.8 μM
  Absorbance of culture medium at 600 nm: 0.334
Salmonella typhimurium; 2 μM
  Absorbance of culture medium at 600 nm: 0.361
Salmonella typhimurium; 3 μM
  Absorbance of culture medium at 600 nm: 0.402
Salmonella typhimurium; 6 μM
  Absorbance of culture medium at 600 nm: 0.382
Salmonella typhimurium; 13 μM
  Absorbance of culture medium at 600 nm: 0.399
Salmonella typhimurium; 25 μM
  Absorbance of culture medium at 600 nm: 0.390
Salmonella typhimurium; 50 μM
  Absorbance of culture medium at 600 nm: 0.315
Salmonella typhimurium; 100 μM
  Absorbance of culture medium at 600 nm: 0.280

## CCCCCCCCCCN(C)C1C[C@@H](C)O[C@@H](O[C@@H]2[C@@H](C)[C@H](O[C@H]3C[C@@](C)(OC)[C@@H](O[N+](=O)[O-])[C@H](C)O3)[C@@H](C)C(=O)O[C@H](CC)[C@@](C)(O)[C@H](O)[C@@H](C)N(C)C[C@H](C)C[C@@]2(C)O)[C@@H]1O (stereo partly drawn) [Compound E-3]
[2]
  Body weight and clinical score of BALBc mice at day 9 after commencing 2.5% DSS in water: stimulate inflammation
